Test results: patent US9409866B2, “Pyridine-2-amides useful as CB2 agonists” (Hoffmann-La Roche Inc., priority 2012, dated 2016)
Like-named read-outs stand apart in the source and are kept apart here.

Assays:
human CB2 receptors = human CB2 receptors (Homo sapiens (Human), UniProt P34972); assay: functional cAMP assay, CHO cells expressing human CB2; format: cell-based
In short: (§1)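 Compound exposure lasted 30 min at 30 °C in IBMX (1 mM)-containing Krebs Ringer bicarbonate buffer, applied to human CB1- or CB2-expressing CHO cells. Lysates were read by time-resolved FRET cAMP detection, converted via cAMP standard curve (10 μM–0.13 nM), and EC50 values calculated.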

human CB1 receptors = human CB1 receptors (Homo sapiens (Human), UniProt P21554); assay: functional cAMP assay, CHO cells expressing human CB1; format: cell-based
Sequence of human CB1 receptors (P21554 whole entry): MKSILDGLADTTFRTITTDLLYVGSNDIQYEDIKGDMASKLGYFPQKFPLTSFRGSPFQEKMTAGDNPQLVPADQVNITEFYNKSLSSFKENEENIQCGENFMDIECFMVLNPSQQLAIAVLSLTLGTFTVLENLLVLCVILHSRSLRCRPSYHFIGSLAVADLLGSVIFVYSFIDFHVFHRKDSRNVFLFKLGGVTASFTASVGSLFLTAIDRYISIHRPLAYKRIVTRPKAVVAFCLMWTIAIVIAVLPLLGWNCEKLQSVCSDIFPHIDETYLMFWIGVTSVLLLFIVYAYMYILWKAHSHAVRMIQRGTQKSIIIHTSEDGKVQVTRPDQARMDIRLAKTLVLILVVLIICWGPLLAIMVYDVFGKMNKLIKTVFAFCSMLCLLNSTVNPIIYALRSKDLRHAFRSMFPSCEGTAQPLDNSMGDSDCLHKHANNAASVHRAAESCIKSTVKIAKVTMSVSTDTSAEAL
In short: as §1

[1] = read-out: Human CB1 EC50; functional cAMP assay, CHO cells expressing human CB1
[2] = functional cAMP assay, CHO cells expressing human CB1; read-out: Human CB1 EC50
[3] = Human CB1 EC50 (uM), functional cAMP assay, CHO cells expressing human CB1

Sequence of human CB2 receptors (P34972 whole entry): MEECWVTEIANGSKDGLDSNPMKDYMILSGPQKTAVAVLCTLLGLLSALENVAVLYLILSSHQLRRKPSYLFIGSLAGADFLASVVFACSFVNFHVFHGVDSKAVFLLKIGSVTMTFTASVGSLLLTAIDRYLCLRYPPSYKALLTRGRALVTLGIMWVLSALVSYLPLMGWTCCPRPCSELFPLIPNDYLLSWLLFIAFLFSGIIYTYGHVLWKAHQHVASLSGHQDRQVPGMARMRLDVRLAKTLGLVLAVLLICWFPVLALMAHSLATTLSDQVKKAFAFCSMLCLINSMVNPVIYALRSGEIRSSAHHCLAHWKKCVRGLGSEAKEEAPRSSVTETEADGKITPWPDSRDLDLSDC

Row | SMILES | EC50 (human CB2 receptors; Human CB2 EC50 (uM)) | EC50 (human CB1 receptors; [1]) | EC50 (human CB2 receptors; read-out: Human CB2 EC50) | EC50 (human CB1 receptors; [2]) | EC50 (human CB1 receptors; [3])
1 | CC(CC(N)=O)(NC(=O)c1cc(OCC(F)(F)F)c(N2CC(F)(F)C2)cn1)C1CC1 (single isomer, unassigned) [Example 276, N-[4-amino-2-cyclopropyl-4-oxobutan-2-yl]-5-(3,3-difluoroazetidin-1-yl)-4-(2,2,2-trifluoroethoxy)pyridine-2-carboxamide] | 0.137 µM | > 10 µM | – | – | –
2 | Cc1nc(C(C)(CO)NC(=O)c2cc(OCC(F)(F)F)c(C3CC3)cn2)no1 (single isomer, unassigned) [Example 141, 5-cyclopropyl-N-[1-hydroxy-2-(5-methyl-1,2,4-oxadiazol-3-yl)propan-2-yl]-4-(2,2,2-trifluoroethoxy)pyridine-2-carboxamide] | 0.0968 µM | > 10 µM | – | – | –
3 | Cc1nnc(C(C)(CC2COC2)NC(=O)c2cc(O[C@@H](C)C(F)(F)F)c(C3CC3)cn2)o1 (stereo partly drawn) [Example 190, 5-cyclopropyl-N-[2-(5-methyl-1,3,4-oxadiazol-2-yl)-1-(oxetan-3-yl)propan-2-yl]-4-[(2S)-1,1,1-trifluoropropan-2-yl]oxypyridine-2-carboxamide] | – | – | 0.559 µM | > 10 µM | –
4 | Cc1nc(C(C)(CS(C)(=O)=O)NC(=O)c2cc(OCC(F)(F)F)c(C3(F)COC3)cn2)no1 (single isomer, unassigned) [Example 133, 5-(3-fluorooxetan-3-yl)-N-[2-(5-methyl-1,2,4-oxadiazol-3-yl)-1-methylsulfonylpropan-2-yl]-4-(2,2,2-trifluoroethoxy)pyridine-2-carboxamide] | – | > 10 µM | 0.568 µM | – | –
5 | CC(CC1CC1)(NC(=O)c1cc(OCC(F)(F)F)c(C2CC2)cn1)c1noc(N)n1 (centres unmarked) [Example 165, N-[2-(5-amino-1,2,4-oxadiazol-3-yl)-1-cyclopropylpropan-2-yl]-5-cyclopropyl-4-(2,2,2-trifluoroethoxy)pyridine-2-carboxamide] | – | – | 0.022 µM | > 10 µM | –
6 | CC(C)(C)C(NC(=O)c1cc(OCC(F)(F)F)c(C2CC2)cn1)C(=O)N1CCC12COC2 (centres unmarked) [Example 198, 5-cyclopropyl-N-[3,3-dimethyl-1-(6-oxa-1-azaspiro[3.3]heptan-1-yl)-1-oxobutan-2-yl]-4-(2,2,2-trifluoroethoxy)pyridine-2-carboxamide] | – | – | 0.0364 µM | > 10 µM | –
7 | NC(=O)CC1(NC(=O)c2cc(OCC(F)(F)F)c(C3CCC3)cn2)CS(=O)(=O)C1 [Example 299, N-[3-(2-amino-2-oxoethyl)-1,1-dioxothietan-3-yl]-5-cyclobutyl-4-(2,2,2-trifluoroethoxy)pyridine-2-carboxamide] | – | – | 0.002 µM | > 10 µM | –
8 | CC(C)(C)C(NC(=O)c1cc(OCC(F)(F)F)c(N2CC(F)(F)C2)cn1)C(N)=O (centres unmarked) [Example 256, N-(1-amino-3,3-dimethyl-1-oxobutan-2-yl)-5-(3,3-difluoroazetidin-1-yl)-4-(2,2,2-trifluoroethoxy)pyridine-2-carboxamide] | – | – | 0.0132 µM | > 10 µM | –
9 | CC(CC(N)=O)(NC(=O)c1cc(OCC(F)(F)F)c(C2(F)CCC2)cn1)C1CC1 (centres unmarked) [Example 300, N-(4-amino-2-cyclopropyl-4-oxobutan-2-yl)-5-(1-fluorocyclobutyl)-4-(2,2,2-trifluoroethoxy)picolinamide] | – | – | 0.0067 µM | > 10 µM | –
10 | CN(C(=O)c1cc(-c2cccc(Cl)c2)ccn1)C(C)(C)C [Example 86, 4-(3-Chloro-phenyl)-pyridine-2-carboxylic acid tert-butyl-methyl-amide] | – | – | 0.145 µM | > 10 µM | –
11 | Cc1nnc(C(NC(=O)c2cc(OCC(F)(F)F)c(C3CC3)cn2)C2(C)COC2)o1 (centres unmarked) [Example 245, 5-cyclopropyl-N-[(5-methyl-1,3,4-oxadiazol-2-yl)-(3-methyloxetan-3-yl)methyl]-4-(2,2,2-trifluoroethoxy)pyridine-2-carboxamide] | – | – | 0.997 µM | > 10 µM | –
12 | Cc1nc(C(C)(CS(C)(=O)=O)NC(=O)c2cc(OCC(F)(F)F)c(C3=CCC3)cn2)no1 (centres unmarked) [Example 127, 5-(cyclobuten-1-yl)-N-[2-(5-methyl-1,2,4-oxadiazol-3-yl)-1-methylsulfonylpropan-2-yl]-4-(2,2,2-trifluoroethoxy)pyridine-2-carboxamide] | – | – | 0.0196 µM | > 10 µM | –
13 | CCC(CC)(NC(=O)c1cc(OCC2(C)COC2)c(C2CC2)cn1)C(=O)NCC(F)CCl (centres unmarked) [Example 235, N-[3-[[3-chloro-2-fluoropropyl]carbamoyl]pentan-3-yl]-5-cyclopropyl-4-[(3-methyloxetan-3-yl)methoxy]pyridine-2-carboxamide] | – | – | 0.293 µM | > 10 µM | –
14 | Cc1nc(C(C)(NC(=O)c2cc(OCC(F)(F)F)c(Cl)cn2)C2CC2)no1 (centres unmarked) [Example 62, 5-Chloro-4-(2,2,2-trifluoro-ethoxy)-pyridine-2-carboxylic acid [1-cyclopropyl-1-(5-methyl-[1,2,4]oxadiazol-3-yl)-ethyl]-amide] | – | – | 0.0089 µM | > 10 µM | –
15 | CNC(=O)CC1(NC(=O)c2cc(OCC(F)(F)F)c(C3CC3)cn2)CS(=O)(=O)C1 [Example 282, 5-cyclopropyl-N-[3-[2-(methylamino)-2-oxoethyl]-1,1-dioxothietan-3-yl]-4-(2,2,2-trifluoroethoxy)pyridine-2-carboxamide] | – | – | 0.659 µM | > 10 µM | –
16 | CC(C)(C)C(NC(=O)c1cc(OC2COC2)c(Cl)cn1)c1nccs1 (centres unmarked) [Example 39, 5-Chloro-4-(oxetan-3-yloxy)-pyridine-2-carboxylic acid (2,2-dimethyl-1-thiazol-2-yl-propyl)-amide] | – | – | 0.128 µM | > 10 µM | –
17 | CNC(=O)C(C)(NC(=O)c1cc(OCC(F)(F)F)c(C2CC2)cn1)c1noc(C)n1 (single isomer, unassigned) [Example 187, 5-cyclopropyl-N-[1-(methylamino)-2-(5-methyl-1,2,4-oxadiazol-3-yl)-1-oxopropan-2-yl]-4-(2,2,2-trifluoroethoxy)pyridine-2-carboxamide] | 0.416 µM | – | – | – | > 10 µM
18 | Cc1nnc(C(C)(CC2CC2)NC(=O)c2cc(OCC(F)(F)F)c(C3CC3)cn2)o1 (centres unmarked) [Example 173, 5-cyclopropyl-N-[1-cyclopropyl-2-(5-methyl-1,3,4-oxadiazol-2-yl)propan-2-yl]-4-(2,2,2-trifluoroethoxy)pyridine-2-carboxamide] | – | – | 0.0544 µM | > 10 µM | –
19 | CC(C)C[C@@H](CO)NC(=O)c1cc(OCC2CC2)c(Cl)cn1 [Example 7, 5-Chloro-4-cyclopropylmethoxy-pyridine-2-carboxylic acid ((S)-1-hydroxymethyl-3-methyl-butyl)-amide] | – | – | 0.0523 µM | > 10 µM | –
20 | CNC(=O)CC1(NC(=O)c2cc(O[C@@H](C)C(F)(F)F)c(C3CC3)cn2)COC1 [Example 232, 5-cyclopropyl-N-[3-[2-(methylamino)-2-oxoethyl]oxetan-3-yl]-4-[(2S)-1,1,1-trifluoropropan-2-yl]oxypyridine-2-carboxamide] | – | – | 0.116 µM | > 10 µM | –
21 | CNC(=O)C(NC(=O)c1cc(O[C@@H](C)C(F)(F)F)c(C2CC2)cn1)C(C)(C)O (stereo partly drawn) [Example 252, 5-cyclopropyl-N-[3-hydroxy-3-methyl-1-(methylamino)-1-oxobutan-2-yl]-4-[(2S)-1,1,1-trifluoropropan-2-yl]oxypyridine-2-carboxamide] | – | – | 0.344 µM | > 10 µM | –
22 | CNC(=O)[C@@H](NC(=O)c1cc(OCC(F)(F)F)c(Cl)cn1)C(C)(C)C [Example 24, 5-Chloro-4-(2,2,2-trifluoro-ethoxy)-pyridine-2-carboxylic acid ((S)-2,2-dimethyl-1-methylcarbamoyl-propyl)-amide] | – | – | 0.0098 µM | > 10 µM | –
23 | CC(C)C[C@H](CC(N)=O)NC(=O)c1cc(OCC(F)(F)F)c(C2CC2)cn1 (single isomer, unassigned; enantiomer a) [Example 65, 5-Cyclopropyl-4-(2,2,2-trifluoro-ethoxy)-pyridine-2-carboxylic acid (1-carbamoylmethyl-3-methyl-butyl)-amide (enantiomer A)] | 0.027 µM | – | – | – | > 10 µM
24 | CNC(=O)CC1(NC(=O)c2cc(OCC(F)(F)F)c(C3(F)CCC3)cn2)CS(=O)(=O)C1 [Example 285, 5-(1-fluorocyclobutyl)-N-[3-[2-(methylamino)-2-oxoethyl]-1,1-dioxothietan-3-yl]-4-(2,2,2-trifluoroethoxy)pyridine-2-carboxamide] | – | – | 1.44 µM | > 10 µM | –
25 | Cc1nc(C(C)(CS(C)(=O)=O)NC(=O)c2cc(OCCF)c(C3CC3)cn2)no1 (single isomer, unassigned) [Example 280, 5-cyclopropyl-4-(2-fluoroethoxy)-N-[2-(5-methyl-1,2,4-oxadiazol-3-yl)-1-methylsulfonylpropan-2-yl]pyridine-2-carboxamide] | 0.0786 µM | > 10 µM | – | – | –
26 | Cc1nc(C(NC(=O)c2cc(O[C@@H](C)C(F)(F)F)c(C3CC3)cn2)C2(C)COC2)no1 (stereo partly drawn) [Example 255, 5-cyclopropyl-N-[(5-methyl-1,2,4-oxadiazol-3-yl)-(3-methyloxetan-3-yl)methyl]-4-[(2S)-1,1,1-trifluoropropan-2-yl]oxypyridine-2-carboxamide] | – | – | 0.0067 µM | > 10 µM | –
27 | COC(=O)C(C)(C)NC(=O)c1cc(I)c(Cl)cn1 [Example 1, 2-[(5-Chloro-4-iodo-pyridine-2-carbonyl)-amino]-2-methyl-propionic acid methyl ester] | – | – | 0.0356 µM | > 10 µM | –
28 | Cc1nc([C@](C)(CS(C)(=O)=O)NC(=O)c2cc(OCC(F)(F)F)c(C3CC3)cn2)no1 (single isomer, unassigned) [Example 99, 5-Cyclopropyl-4-(2,2,2-trifluoro-ethoxy)-pyridine-2-carboxylic acid [2-methanesulfonyl-1-methyl-1-(5-methyl-[1,2,4]oxadiazol-3-yl)-ethyl]-amide] | 0.104 µM | – | – | – | > 10 µM
